Experimental data reported in patent US20140315972A1, “RS)-2-(2-oxo-4-phenylpyrrolidin-1-yl)acetamide compound having modulatory activity with a commensurate effect, pharmaceutical substance (variants) and its application, composition (variants) thereof” (priority 2011, published 2014).
Marks after values point to notes of the source that are not given here.

What was measured:
mice = test: Apomorphine verticalization (positive symptoms of schizophrenia); format: in vivo; details: for Intensity of verticalization in points: mice, apomorphine 2 mg/kg s.c.
Protocol: Studies have been conducted on white outbred male mice (18-24 g), in comparison with the olanzapine (Zyprexa) with intraperitoneal injection.
In the model of positive symptoms of schizophrenia associated with hyperactivation of the dopamine systems, which allows to identify the ability of substances to block the dopaminergic transmission in the mesolimbic system of the brain, Phenotropil (100, 200, and 300 mg/kg) reduced the apomorphine-induced (2 mg/kg subcutaneously) verticalization intensity scores (Table 4) by 45%, by 2.0 and 2.6 times, respectively.

[1] = Slendering effect, body weight and rating scales in obese humans; format: in vivo, human; details: for Body weight (%): adult humans, change vs background (not treated) = 100; for decrease of body weight: obese women
Protocol: A study of the slendering effect of Phenotropil (100, 200 and 300 mg once a day for 30 days) in women (37-65 years) with alimentary constitutional obesity and non-obese groups (males and females 23-47 years) are presented in Table 26. The control groups received placebo tablets. The nutrition regimen and ration were not regulated; no recommendations on calories or regimen were given. The purpose of the study was to identify the effect of the drug without the influence of the diet. To assess the condition before and after treatment, in addition to the measurement of body weight, the dynamics of the general clinical condition was studied: asthenia scale MFI-20, Hospital Anxiety and Depression Scale, the quality of life scale SF-36. The questionnaires were completed twice: one day before treatment and the next day after the end of treatment.

rats [2] = test: Retrograde amnesia of CRPA induced by electroshock and scopolamine, adult rats; format: in vivo
Source text: (§1) Phenotropil has a pronounced mnemotropic and nootropic activity. The results of the study of the antiamnestic activity (classical technique in the equipment manufactured by Lafayette Instrument Co, USA) in the retrograde amnesia of the passive avoidance conditional reflex (CRPA) induced by maximal electroshock (MES) and scopolamine in male rats (180-250 g) are shown in Table 7. […] Taking into account the studies using the open field and cross maze tests, the nootropic action component of the modulatory drug not only may be more pronounced, but is broader in manifestation depending on the type of disorder or in unfamiliar situational conditions. The pronounced nootropic activity of Phenotropil (100, 200, 300 mg/kg) also manifests in rat pups of both sexes 30-35 days of age (Table 7.1) after scopolamine-induced CRPA amnesia.

Stability during storage = format: physicochemical; details: sterile 0.001-3% solutions with cyclodextrin or Tween, ampoules
Protocol: The resulting compositions are stable. The studies were conducted in accordance with regulatory requirements for determination when stored in natural conditions (in a dry, dark place at a temperature not exceeding 30° C.) and using the standard method of accelerated aging.
The crystalline powder of the Phenotropil substances is not volatile, has white, rarely white to slightly yellowish or slightly cream color, bitter taste (bitter taste that disappears in the mouth rather quickly after dissolution, leaving no unpleasant sensations). In the related products, the bitter taste persists. The Compounds are sparingly soluble in water and saline, moderately soluble in 96.0% alcohol and chloroform. Readily soluble in water and saline under heating, but the solutions are not stable during cooling and storage under normal conditions (not more than 2 hours, which is acceptable for the extemporaneous preparations and research), moderately soluble in 5.0% glucose solution, dissolve well in the presence of solubilizers and emulsifiers. Tween80 and cyclodextrins increase solubility in water, especially Tween80, while cyclodextrins have limitations by concentration. […]

[3] = Daily diuresis in non-obese humans; format: in vivo, human; details: for Daily urine volume (ml/day, %): adult humans, background (not treated) = 100
Protocol: The effect of Phenotropil (25, 50 and 100 mg in the morning) on diuresis was investigated in non-obese groups (males and females 23-47 years) for 10 days. The daily volume of urine when treated with placebo and Phenotropil was recorded.

rats [4] = test: Scopolamine-induced CRPA amnesia in rats 30-35 days of age; format: in vivo
Source text: as §1
(§2) In studying immature animals, it must be considered that to generate CRPA it is required, as was established, to apply higher educational incentives (0.6 mA, 8 pulses vs 5 pulses at 0.45 mA in adult rats) with re-training (after 48 hours). Development of amnesia also requires a higher dose of scopolamine (1.3 mg/kg) in rat pups. […] Phenotropil has not only a psychomodulatory (Ψ-modulatory) activity but also a Ψ-operandmodulatory activity given that the mnemotropic effect is associated with the expression of specific proteins and genes involved in memory, attention and learning.

rats [5] = test: Training ability of immature under-trained rats in the CRPA test; format: in vivo; details: for LP1 (training) / LP2 (at 24 h) / ΔLP: under-trained rats 30-35 days
Protocol: as §2

## NC(=O)CN1CC(c2ccccc2)CC1=O (racemic) [Compound 1, (RS)-2-(2-oxo-4-phenylpyrrolidine-1-yl)acetamide]
mice; 1 mg/kg
  reduction of verticalization intensity: 26%
mice; 10 mg/kg
  reduction of verticalization intensity: 66.5%
mice; 100 mg/kg
  reduction of verticalization intensity: 45%
mice; 200 mg/kg
  reduction of verticalization intensity: 2.0 times
mice; 300 mg/kg
  reduction of verticalization intensity: 2.6 times
mice; 100 mg/kg i.p.
  Intensity of verticalization in points: 27 ± 8.7 points
mice; 200 mg/kg i.p.
  Intensity of verticalization in points: 25 ± 5.1 points
mice; 300 mg/kg i.p.
  Intensity of verticalization in points: 19 ± 5.1 points
[1]; 100 mg/day
  Body weight (%): −12.0 * %
[1]; 200 mg/day
  Body weight (%): −15.0 * %
[1]; 300 mg/day
  Body weight (%): −17.8 * %
[1]; comorbidities
  positive effect on cramps when urinating, patients: 5 of 5
  positive effect on lost ability to sense and discriminate odors, patients: 11 of 18
  positive effect on prostatitis, patients: 3 of 3
  positive trend in chronic sinusitis, patients: 8 of 8
[1]; 100 mg once a day 30 days
  decrease of body weight: 12%
[1]; 200 mg once a day 30 days
  decrease of body weight: 15%
[1]; 300 mg once a day 30 days
  decrease of body weight: 18%
[1]; rating scales after 30 days
  decrease of anxiety and depression, on average: more than 60%
  decrease of indicators of fatigue: 92%
Rats [2]; ECS amnesia, 25 mg/kg
  Latent period of the first entry into the chamber at testing the preservation of CRPA, after 24 hours: 65.6* seconds
Rats [2]; ECS amnesia, 50 mg/kg
  Latent period of the first entry into the chamber at testing the preservation of CRPA, after 24 hours: 74.4* seconds
Rats [2]; ECS amnesia, 100 mg/kg
  Latent period of the first entry into the chamber at testing the preservation of CRPA, after 24 hours: 112.5* seconds
Rats [2]; scopolamine 1 mg/kg amnesia, 25 mg/kg
  Latent period of the first entry into the chamber at testing the preservation of CRPA, after 24 hours: 78.8* seconds
Rats [2]; scopolamine 1 mg/kg amnesia, 50 mg/kg
  Latent period of the first entry into the chamber at testing the preservation of CRPA, after 24 hours: 96.0* seconds
Rats [2]; scopolamine 1 mg/kg amnesia, 100 mg/kg
  Latent period of the first entry into the chamber at testing the preservation of CRPA, after 24 hours: 125.3* seconds
Stability during storage
  storage stability of sterile solutions: at least 12 months
[3]; 25, 50, 100 mg in the morning, first three days
  increase of daily urine output, average index: 30-37%
[3]; 25 mg/day
  Daily urine volume (ml/day, %): 130 * %
[3]; 50 mg/day
  Daily urine volume (ml/day, %): 137 * %
[3]; 100 mg/day
  Daily urine volume (ml/day, %): 137 * %
[3]; next 7 days
  fluctuations in urine output: 5-10%
Rats [4]; 100 mg/kg
  LP1 (training): 7.2 ± 2.8
  LP2 (at 24 hours): 25.2 ± 3.8
  ΔLP: 18.0 ± 2.9
Rats [4]; 200 mg/kg
  LP1 (training): 11.0 ± 3.0
  LP2 (at 24 hours): 45.2 ± 7.3
  ΔLP: 34.2 ± 9.0
Rats [4]; 300 mg/kg
  LP1 (training): 8.0 ± 3.0
  LP2 (at 24 hours): 82.4 ± 4.3
  ΔLP: 74.4 ± 3.7
Rats [5]; 50 mg/kg
  mnemotropic effect by ΔLP index versus saline treated control: +133%
Rats [5]; 100 mg/kg
  mnemotropic effect by ΔLP index versus saline treated control: +504%
Rats [5]; 300 mg/kg
  mnemotropic effect by ΔLP index versus saline treated control: +696%
Rats [5]; intragastric 50 mg/kg
  LP1 (training): 7.2 ± 2.1
  LP2 (at 24 h): 18.4 ± 4.6
  ΔLP: 11.2 ± 3.4
Rats [5]; intragastric 100 mg/kg
  LP1 (training): 7.2 ± 2.1
  LP2 (at 24 h): 36.2 ± 4.6
  ΔLP: 29.0 ± 3.4
Rats [5]; intragastric 300 mg/kg
  LP1 (training): 6.8 ± 1.2^
  LP2 (at 24 h): 45.0 ± 7.5
  ΔLP: 38.2 ± 4.4
